Measured values reported in US12629419B2, “Prevention or mitigation of T-cell engaging agent-related adverse effects” (Hoffmann-La Roche Inc., priority 2020, dated 2026).
“Also recorded” adds a separate entry of the source.

Tests used:
[1] = cited from earlier work
SUDLH-8 tumor cells = test: killing assay with PBMCs, CTV labelled SUDLH-8 tumor cells and CD19-TCB; type: cell-based; conditions: 24 hrs; 100 nM kinase inhibitors or dexamethasone, 5 μg/mL antibodies
Method: FIG. 64. In vitro killing assay set-up. PBMCs were co-cultured with CellTrace™ Violet (CTV) labelled SUDLH-8 tumor cells (E:T=10:1) in the presence of escalating concentrations of CD19-TCB in media supplemented with the different kinase inhibitors (100 nM) for 24 hrs.
FIG. 69. In vitro killing assay set-up. PBMCs were co-cultured with CTV labelled SUDLH-8 cells (E:T=10:1) in the presence of escalating concentrations of CD19-TCB in media supplemented with the different JAK inhibitors (100 nM) for 24 hrs.
FIG. 73. In vitro killing assay set-up.
(§1) PBMCs were co-cultured together with CellTrace™ Violet (CTV) labelled SUDLH-8 tumor cells and escalating concentrations of CD19-TCB in the presence of the different kinase inhibitors, including also the Src inhibitor dasatinib (FIG. 64). At assay endpoint (24 hrs), the killing of CTV labelled SUDLH-8 cells was measured by flow cytometry by exclusion of the dead SUDLH-8 cells with a Live/Dead stain. […] Lastly, the levels of cytokines were measured in the supernatants of the assay to evaluate the effect of mTOR, JAK and Src inhibitors on CD19-TCB-induced cytokine release.
(§2) At assay endpoint (24 hrs), the killing of CTV labelled SUDLH-8 cells was measured by flow cytometry by exclusion of the dead SUDLH-8 cells with a Live/Dead stain. […] Lastly, the levels of cytokines were measured in the supernatants of the assay to assess the effect of the JAK inhibitors on CD19-TCB-induced cytokine release.
as §2, with “stain to evaluate the effect of the different mitigation approaches on CD19-TCB-dependent killing.” for “stain.”, “address” for “assess”

[2] = test system: CD19-TCB-induced cytokine release; test: CD19-TCB-induced cytokine release in SUDLH-8 assay (Luminex); type: cell-based; conditions: 24 hrs; 100 nM inhibitor
Method: as §1, §2
as §2, with “stain to evaluate the effect of the different mitigation approaches on CD19-TCB-dependent killing.” for “stain.”, “address” for “assess”

[3] = test system: CEA-TCB-induced cytokine release; test: CEA-TCB-induced cytokine release (Luminex, supernatants); conditions: 72 hrs; 10 nM CEA-TCB; concentrations 50 nM to 1 μM
Method: The levels of cytokines were measured by Luminex in the supernatants of the assay to determine the impact of the different compounds on CEA-TCB-induced cytokine release.

[4] = test system: MKN45 NucLight Red (NLR) target cells; test: killing assay with PBMCs, MKN45 NLR target cells and CEA-TCB (Incucyte); type: cell-based
CD4+ and CD8+ T cells [5] = test: T cell activation (CD25, CD69 by flow cytometry) in CEA-TCB killing assay; type: cell-based; conditions: 10 nM CEA-TCB
CD20+ B cells = test: CD19-TCB-induced B cell depletion in humanized NSG mice; type: in vivo
Source text: FIG. 81. In vivo experiment timelines and dosing schedule.
To best reproduce the pharmacodynamic profile of ruxolitinib, dasatinib and sirolimus in the clinic and to verify whether the resulting exposure would be sufficient to prevent CD19-TCB-induced cytokine release, dasatinib and ruxolitinib were given per os twice per day, and sirolimus was given per os twice per day on day 1 and then once per day.
At 48 hrs and 72 hrs, blood was collected by tail-vein bleeding and the CD20+ B cell count was measured by flow cytometry (FIGS. 82A and B) to assess the effect of the different treatments on CD19-TCB-induced B cell depletion. […] Its half-life being around 6-7 hrs and dasatinib being given only twice per day, a lack of exposure could likely explain that CD19-TCB was partially active, resulting in B cell depletion. At experiment termination (72 hrs), spleens were collected and the B cell count was measured by flow-cytometry (FIG. 83). […] However, their inhibitory effect was stronger than methylprednisolone (FIG. 83).

CD4+ and CD8+ T cells [6] = test: T cell activation (CD25, CD69) in CD20-TCB killing assay; type: cell-based; conditions: 24 hours, concentrations 0 nM to 100 nM
WSU DLCL2 tumor cells = test: killing assay with PBMCs, CTV labelled WSU DLCL2 tumor cells and CD20-TCB; type: cell-based; conditions: 24 hours
Method: FIG. 13. In vitro killing assay set-up.
FIG. 14. […] At 24 hours, the tumor cells and PBMCs from technical replicates were pooled and stained with a LIVE/DEAD™ Near-IR dead cell dye to allow exclusion of dead CTV labelled WSU DLCL2 tumor cells by flow cytometry. Mean of n=3 donors+/−SEM.
(§3) A similar experiment was conducted with another TCB. WSU DLCL2 cells were co-cultured together with PBMCs in the presence of 1 nM CD20-TCB (SEQ ID NOs 4-11, 24-35), and escalating sirolimus doses ranging from 0 nM to 1000 nM (FIG. 13).
(§4) A similar experiment was conducted with another TCB. […] The killing of B cells was measured as a readout for the impact of the various compounds on TCB efficacy at 24 h (FIGS. 27 and 28). […] Lastly, the levels of cytokines (TNF-α, IFN-γ, IL-2, IL-6, IL-4, IL-10, GM-CSF and IL-1β) were analyzed by Luminex at assay endpoint to assess the impact of the different treatments on TCB-induced cytokine release (FIGS. 32 and 33).
(§5) At 24 hours, tumor cell killing was measured by flow cytometry by exclusion of dead CTV cells. The supernatants were collected and cytokines were measured by Luminex.

CD4+ and CD8+ T cells [7] = test: T cell activation (CD25, CD69) in CD20-TCB killing assay; type: cell-based; conditions: 24 hours; CD20-TCB; concentration of 1 μM
Method: as §3
(§6) A similar experiment was conducted with CD20-TCB.
(§7) A similar experiment was conducted with CD20-TCB. WSU DLCL2 cells were co-cultured together with PBMCs in the presence of 1 nM CD20-TCB, and escalating everolimus doses ranging from 0 nM to 1000 nM (FIG. 13).
(§8) A similar experiment was conducted with CD20-TCB. WSU DLCL2 cells were co-cultured together with PBMCs in the presence of 1 nM CD20-TCB, and escalating ruxolitinib doses ranging from 0 nM to 1000 nM (FIG. 13).
as §4, §5

[8] = test system: MAGEA4-TCB-induced cytokine release; test: MAGEA4-TCB-induced cytokine release; type: cell-based; conditions: 25 nM MAGEA4-TCB; 0 nM to 100 nM
Method: FIG. 45. Effect of escalating concentrations (c) of ruxolitinib on IFN-γ (A), IL-2 (B), TNF-α (C), GM-CSF (D), IL-6 (E), IL-1β (F), IL-8 (G), MCP-1 (H) and IL-10 (I) levels induced by 8 nM MAGEA4-TCB. At 72 hours, the supernatants were collected and cytokines were analyzed by cytometric bead array (CBA). Mean of technical replicates+/−SD for 1 representative donor.
FIG. 47. […] At 72 hours, the supernatants were collected and cytokines were analyzed by CBA. Mean of technical replicates+/−SD for 1 representative donor.
The effect of ruxolitinib on TCB-induced tumor cell killing and cytokine release was assessed using an additional TCB, the MAGEA4-TCB (SEQ ID NOs 37-56).

[9] = test system: A375 NucLight Red (NLR) target-cells; test: killing assay with PBMCs, A375 NLR target cells and MAGEA4-TCB (Incucyte); type: cell-based; conditions: 25 nM MAGEA4-TCB; 0 nM to 100 nM
[10] = test system: CD20-TCB-induced cytokine release; test: CD20-TCB-induced cytokine release (Luminex); type: cell-based; conditions: 24 hours; CD20-TCB; escalating doses
Method: A similar experiment was conducted with another TCB.
as §6, §7, §8, §4, §5

Compound: Cc1nc(Nc2ncc(C(=O)Nc3c(C)cccc3Cl)s2)cc(N2CCN(CCO)CC2)n1 [dasatinib]
- half-life [1]: 6 to 7 h

Compound: C[C@@H]1CCN(C(=O)CC#N)C[C@@H]1N(C)c1ncnc2[nH]ccc12 [tofacitinib, Tofacitinib]
- CD19-TCB-dependent killing of CTV labelled SUDLH-8 cells (SUDLH-8 tumor cells): did not prevent
- CD19-TCB-induced IFN-γ, TNF-α, IL-6 and GM-CSF release [2]: prevented
- CD19-TCB-induced cytokine release [2]: as potent as ruxolitinib

Compound: Cc1cnc(Nc2ccc(OCCN3CCCC3)cc2)nc1Nc1cccc(S(=O)(=O)NC(C)(C)C)c1 [fedratinib, Fedratinib]
- levels of IFN-γ, IL-2, TNF-α, IL-6 and IL-8 [3]: reduced
- MKN45 NLR target cell killing by 10 nM CEA-TCB ([4]; doses below 1 μM): only a minor effect
- MKN45 NLR target cell killing by 10 nM CEA-TCB ([4]; inhibitor doses 12.5 nM to 1 μM, 50 000 PBMCs: 5 000 target cells, Incucyte): only partially reduced
- expression of CD69 and CD25 on CD4+ T cells and CD8+ T cells (CD4+ and CD8+ T cells [5]; 72 hrs, concentrations below 1 μM): did not affect

Compound: obinutuzumab
- depletion of B cells in blood (CD20+ B cell count) (CD20+ B cells; 48 hrs and 72 hrs, 0.5 mg/kg CD19-TCB i.v., obinutuzumab pre-treatment 30 mg/kg i.v.): complete depletion
- CD19-TCB-induced CD20+ B cell depletion in the spleen (CD20+ B cells; 72 hrs (termination)): complete depletion

Compound: CCS(=O)(=O)N1CC(CC#N)(n2cc(-c3ncnc4[nH]ccc34)cn2)C1 [baricitinib, Baricitinib]
- CD19-TCB-dependent killing of CTV labelled SUDLH-8 cells (SUDLH-8 tumor cells): did not prevent
- T cell activation (CD25 and CD69 on CD4+ and CD8+ T cells) (CD4+ and CD8+ T cells [6]): did not impair; also recorded: did not prevent
- CD20-TCB induced tumor cell killing (WSU DLCL2 tumor cells; concentration of 1 μM): slightly reduced
- CD20-TCB-induced tumor cell killing (WSU DLCL2 tumor cells; concentrations 0 nM to 100 nM): did not impair; also recorded: did not prevent
- T cell activation (CD4+ and CD8+ T cells [7]): slightly reduced
- MAGEA4-TCB-induced GM-CSF, IL-2, IFN-γ, TNF-α, IL-1β and IL-6 release [8]: comparable to ruxolitinib
- MAGEA4-TCB-induced tumor cell killing [9]: comparable to ruxolitinib
- levels of IFN-γ, TNF-α, GM-CSF, IL-6 and IL-8 [10]: reduced
- expression of CD25 on CD4+ and CD8+ T cells (CD4+ and CD8+ T cells [5]; 72 hours, escalating concentrations, comparably to ruxolitinib): reduced
- CD19-TCB-induced IFN-γ, TNF-α, IL-6 and GM-CSF release [2]: prevented
- CD19-TCB-induced cytokine release [2]: as potent as ruxolitinib
